# Assay results published in US12729192B2, “CDK9 inhibitor and use thereof” (PHARMABLOCK SCIENCES (NANJING), INC., priority 2020, dated 2026).
# How the values were obtained:
# Type in all cases: biochemical
# Details in all cases: 10 μM ATP, 2 h at room temperature
# CDK9 = CDK9 (Homo sapiens, UniProt P50750); experiment: CDK9 kinase activity inhibition (ADP-Glo)
# Description: (§1) CDK9 kinase was manufactured by the company or commercially available. CDK1, CDK2 and CDK7 were purchased from Carna Biosciences, Inc. ADP-Glo™ kit was purchased from Promega Corporation. Dithiothreitol (DTT), Tween-20, dimethylsulfoxide (DMSO), bovine serum albumin (BSA) and Tris base were obtained from Sigma at the available highest level of purity.
# (§2) General procedures for CDK inhibition determination: The determination was performed in a buffer consisting of 50 μM DTT, 0.1% BSA, 40 mM Tris-HCl pH=7.5 and 20 mM MgCl2. The compound dissolved in DMSO and CDK enzymes were diluted with the buffer. 1 μL of the compound solution in 5% DMSO and 2 μL of the CDK enzyme solution were added to a white low-volume 384-well microtiter plate and incubated for 20 min at room temperature. Ultra pure ATP and the substrate polypeptide (purchased from GenScript Biotech Corporation) were diluted together into the buffer and added to a mixed solution of the compound and the enzyme, 2 μL per well. They were incubated for 2 h at room temperature.
# (§3) After the reaction was completed, 5 μL of ADP-Glo™ reagent was added to each well and incubated for 40 min at room temperature, and then 10 μL of test reagent was added to each well and incubated for 30 mi at room temperature. Chemical luminescence values were measured by using a Tecan (Männedorf, Switzerland) multifunctional plate reader Spark for plate reading. The IC50 value of the inhibitor was obtained by fitting the chemical luminescence intensity ratio in the S-shaped dosage reaction curve using Prism 7 (La Jolla, 15 CA) relative to the concentration of the inhibitor.
# CDK7 = target: T1, CDK7 (Homo sapiens, UniProt P50613); experiment: CDK7 kinase activity inhibition (ADP-Glo)
# T1 construct: purchased Carna Biosciences, Inc
# T1 sequence (P50613 whole entry): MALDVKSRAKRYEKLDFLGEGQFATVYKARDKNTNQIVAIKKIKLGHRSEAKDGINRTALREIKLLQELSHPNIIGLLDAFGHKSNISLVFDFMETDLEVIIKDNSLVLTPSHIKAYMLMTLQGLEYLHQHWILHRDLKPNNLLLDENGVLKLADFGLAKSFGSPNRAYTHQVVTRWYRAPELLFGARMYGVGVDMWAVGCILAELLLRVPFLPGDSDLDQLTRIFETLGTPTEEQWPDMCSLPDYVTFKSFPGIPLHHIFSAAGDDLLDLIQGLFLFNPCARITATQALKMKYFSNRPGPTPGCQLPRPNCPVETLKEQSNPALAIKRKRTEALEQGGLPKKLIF
# T1 sequence (P51946 whole entry partner): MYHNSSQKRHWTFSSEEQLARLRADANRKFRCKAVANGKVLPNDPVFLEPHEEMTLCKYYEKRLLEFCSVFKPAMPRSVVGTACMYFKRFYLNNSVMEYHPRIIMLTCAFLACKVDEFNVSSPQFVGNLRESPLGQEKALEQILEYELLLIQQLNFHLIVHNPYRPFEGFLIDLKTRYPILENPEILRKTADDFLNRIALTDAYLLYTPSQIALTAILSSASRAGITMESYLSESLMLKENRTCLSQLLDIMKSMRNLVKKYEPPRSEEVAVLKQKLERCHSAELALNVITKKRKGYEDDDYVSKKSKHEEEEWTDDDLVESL
# T1 sequence (P51948 whole entry partner): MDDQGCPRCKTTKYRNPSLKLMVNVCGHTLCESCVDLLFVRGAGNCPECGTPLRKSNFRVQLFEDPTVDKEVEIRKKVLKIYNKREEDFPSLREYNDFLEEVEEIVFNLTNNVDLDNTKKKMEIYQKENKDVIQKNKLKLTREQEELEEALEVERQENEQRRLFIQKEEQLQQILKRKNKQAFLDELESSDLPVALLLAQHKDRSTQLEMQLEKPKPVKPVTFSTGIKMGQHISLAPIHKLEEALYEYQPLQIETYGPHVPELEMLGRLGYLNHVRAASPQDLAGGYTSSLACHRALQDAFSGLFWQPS
# Description: as §1, §2, §3
# CDK2 = target: T2, CDK2 (Homo sapiens, UniProt P24941); experiment: CDK2 kinase activity inhibition (ADP-Glo)
# T2 construct: purchased Carna Biosciences, Inc
# Description: as §1, §2, §3
# Sequence of CDK9 (P50750 whole entry): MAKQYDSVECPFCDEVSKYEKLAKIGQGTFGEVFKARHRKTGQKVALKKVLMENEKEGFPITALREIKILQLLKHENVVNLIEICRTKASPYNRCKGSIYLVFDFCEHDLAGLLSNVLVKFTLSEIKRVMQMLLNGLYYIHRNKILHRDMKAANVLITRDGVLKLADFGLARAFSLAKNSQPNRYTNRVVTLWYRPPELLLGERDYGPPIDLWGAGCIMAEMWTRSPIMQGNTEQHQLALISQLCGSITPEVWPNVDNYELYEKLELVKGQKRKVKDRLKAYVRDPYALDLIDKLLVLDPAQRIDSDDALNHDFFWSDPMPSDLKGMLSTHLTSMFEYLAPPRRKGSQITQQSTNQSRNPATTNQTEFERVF
# Sequence of CDK9 (O60563 whole entry partner): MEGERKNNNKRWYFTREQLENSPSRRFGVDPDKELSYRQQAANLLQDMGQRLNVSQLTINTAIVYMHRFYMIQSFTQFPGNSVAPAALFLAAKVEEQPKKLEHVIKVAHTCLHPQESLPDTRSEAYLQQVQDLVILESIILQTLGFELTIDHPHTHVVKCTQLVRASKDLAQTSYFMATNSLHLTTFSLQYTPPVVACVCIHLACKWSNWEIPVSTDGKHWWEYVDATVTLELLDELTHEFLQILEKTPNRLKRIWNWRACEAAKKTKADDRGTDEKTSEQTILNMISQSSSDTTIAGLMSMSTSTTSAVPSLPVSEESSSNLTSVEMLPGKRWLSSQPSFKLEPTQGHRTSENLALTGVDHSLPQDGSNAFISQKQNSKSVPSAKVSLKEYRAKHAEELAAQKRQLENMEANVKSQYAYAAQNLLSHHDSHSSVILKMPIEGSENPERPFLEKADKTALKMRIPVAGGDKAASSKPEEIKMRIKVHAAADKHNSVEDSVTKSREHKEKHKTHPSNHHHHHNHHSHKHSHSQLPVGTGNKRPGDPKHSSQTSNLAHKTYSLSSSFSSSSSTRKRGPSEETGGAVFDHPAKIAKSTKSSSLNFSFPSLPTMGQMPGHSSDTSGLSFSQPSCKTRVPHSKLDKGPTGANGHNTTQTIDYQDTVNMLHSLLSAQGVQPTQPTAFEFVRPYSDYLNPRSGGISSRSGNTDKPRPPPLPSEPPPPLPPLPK
SMILES,IC50 (CDK9) [nM],IC50 (CDK7) [nM],IC50 (CDK2) [nM]
"CCOc1ccnc(Nc2ccc(C)c(C(=O)N3CC(F)(F)CC[C@@H]3CNC(=O)OC(C)(C)C)n2)c1 [Compound 36, (R)-((1-(6-((4-ethoxypyridin-2-yl)amino)-3-methylpyridine-2-carbonyl)-5,5-difluoropiperidin-2-yl)methyl)t-butyl carbamate]",231,> 10000,> 10000
"CC(=O)NC[C@H]1CCC(F)(F)CN1C(=O)c1nc(Nc2cc(C3CCCC3)ccn2)ccc1C [Compound 20, (R)—N-((1-(6-((4-cyclopentylpyridin-2-yl)amino)-3-methylpyridine-2-carbonyl)-5,5-difluoropiperidin-2-yl)methyl)acetamide]",44.1,–,1230
"CC(=O)NC[C@H]1CCC(F)(F)CN1S(=O)(=O)c1cc(Nc2cc(OC(F)(F)F)ccn2)ccc1C [Compound 58, (R)—N-((5,5-difluoro-1-((2-methyl-5-((4-(trifluoromethoxy)pyridin-2-yl)amino)phenyl)sulfonyl)piperidin-2-yl)methyl)acetamide]",> 10000,–,> 10000
"CC(=O)NC[C@H]1CCC(F)(F)CN1C(=O)c1nc(Nc2cc(N3CCCC3)ccn2)ccc1C [Compound 21, (R)—N-((5,5-difluoro-1-(3-methyl-6-((4-(pyrrolidin-1-yl)pyridin-2-yl)amino)pyridine-2-carbonyl)piperidin-2-yl)methyl)acetamide]",182,–,> 10000
"CC(=O)NC[C@H]1CCC(F)(F)CN1C(=O)c1nc(Nc2cc(-c3cnn4c3CCC4)c(F)cn2)ccc1C [Compound 14, (R)—N-((1-(6-((4-(5,6-dihydro-4H-pyrrolo[1,2-b]pyrazol-3-yl)-5-fluoropyridin-2-yl)amino)-3-methylpyridine-2-carbonyl)-5,5-difluoropiperidin-2-yl)methyl)acetamide]",107,1880,1600
"CC(=O)NC[C@H]1CCC(F)(F)CN1C(=O)c1nc(Nc2cc(-c3cnn4c3CCC4)ccn2)ccc1C [Compound 18, (R)—N-((1-(6-((4-(5,6-dihydro-4H-pyrrolo[1,2-b]pyrazol-3-yl)pyridin-2-yl)amino)-3-methylpyridine-2-carbonyl)-5,5-difluoropiperidin-2-yl)methyl)acetamide]",33.6,–,3310
"CC(=O)NC[C@H]1CCC(F)(F)CN1C(=O)c1nc(Nc2cc(C(C)(C)C)sn2)ccc1C [Compound 13, (R)—N-((1-(6-((5-(t-butyl)isothiazol-3-yl)amino)-3-methylpyridine-2-carbonyl)-5,5-difluoropiperidin-2-yl)methyl)acetamide]",64,> 10000,704
"CC(=O)NC[C@H]1CCC(F)(F)CN1C(=O)c1nc(Nc2ncccn2)ccc1C [Compound 23, (R)—N-((5,5-difluoro-1-(3-methyl-6-(pyrimidin-2-ylamino)pyridine-2-carbonyl)piperidin-2-yl)methyl)acetamide]",4620,–,> 10000
"CCOc1ccnc(Nc2ccc(C)c(C(=O)N3CC(F)(F)CC[C@@H]3CN)n2)c1 [Compound 37, (R)-(2-(aminomethyl)-5,5-difluoropiperidin-1-yl)(6-((4-ethoxypyridin-2-yl)amino)-3-methylpyridin-2-yl)methanone]",26.6,–,3560
CC(C)(C)OC(=O)NC[C@H]1CCC(F)(F)CN1C(=O)c1nc(Nc2cc(OC(F)(F)F)ccn2)ccc1F [Compound 66],647,–,1260
"CC(=O)NC[C@H]1CCC(F)(F)CN1Cc1nc(Nc2cc(OC(F)(F)F)ccn2)ccc1C [Compound 62, (R)—N-((5,5-difluoro-1-((3-methyl-6-((4-(trifluoromethoxy)pyridin-2-yl)amino)pyridin-2-yl)methyl)piperidin-2-yl)methyl)acetamide]",531,–,> 10000
"CNC(=O)c1ccnc(Nc2ccc(C)c(C(=O)N3CC(F)(F)CC[C@@H]3CNC(C)=O)n2)c1 [Compound 55, (R)-2-((6-(2-(acetamidomethyl)-5,5-difluoropiperidine-1-carbonyl)-5-methylpyridin-2-yl)amino)-N-methyl isonicotinamide]",28.3,–,> 10000
"CC(=O)NC[C@H]1CCC(F)(F)CN1C(=O)c1cc(Nc2cc(OC(F)(F)F)ccn2)ncc1C [Compound 72, (R)—N-((5,5-difluoro-1-(5-methyl-2-((4-(trifluoromethoxy)pyridin-2-yl)amino)isonicotinoyl)piperidin-2-yl)methyl)acetamide]",1310,–,> 10000
"CC(=O)NC[C@H]1CCC(F)(F)CN1C(=O)c1nc(Nc2ccncn2)ccc1C [Compound 25, (R)—N-((5,5-difluoro-1-(3-methyl-6-(pyrimidin-4-ylamino)pyridine-2-carbonyl)piperidin-2-yl)methyl)acetamide]",218,–,> 10000
"CC(=O)NC[C@H]1CCC(F)(F)CN1C(=O)c1nc(Nc2cnccn2)ccc1C [Compound 26, (R)—N-((5,5-difluoro-1-(3-methyl-6-(pyrazin-2-ylamino)pyridine-2-carbonyl)piperidin-2-yl)methyl)acetamide]",17.8,–,3610
"CC(=O)NC[C@H]1CCC(F)(F)CN1C(=O)c1nc(Nc2cc(OC(F)(F)F)ccn2)ncc1C [Compound 76, (R)—N-((5,5-difluoro-1-(5-methyl-2-((4-(trifluoromethoxy)pyridin-2-yl)amino)pyrimidine-4-carbonyl)piperidin-2-yl)methyl)acetamide]",18.4,–,5780
"CC(=O)NC[C@H]1CCC(F)(F)CN1C(=O)c1nc(Nc2ncccc2OC(F)(F)F)ccc1C [Compound 29, (R)—N-((5,5-difluoro-1-(3-methyl-6-((3-(trifluoromethoxy)pyridin-2-yl)amino)pyridine-2-carbonyl)piperidin-2-yl)methyl)acetamide]",5710,–,> 10000

# Results, then the compound that gave them:
IC50 (CDK9) [nM],IC50 (CDK7) [nM],IC50 (CDK2) [nM],SMILES
573,–,> 10000,"CC(=O)N[C@@H]1C[C@H](NC(=O)c2nc(Nc3cc(OC(F)(F)F)ccn3)ccc2C)CC(F)(F)C1 [Compound 50, N-((1S,5R)-5-acetamido-3,3-difluorocyclohexyl)-3-methyl-6-((4-4-trifluoromethoxypyridin-2-yl)amino)pyridine-2-carbonylamide]"
38,> 10000,1420,"Cc1ccc(Nc2cc(OC(F)(F)F)ccn2)nc1C(=O)N1CC(F)(F)CC[C@@H]1CNC(=O)OC(C)(C)C [Compound 33, (R)-((5,5-difluoro-1-(3-methyl-6-((4-(trifluoromethoxy)pyridin-2-yl)amino)pyridine-2-carbonyl)piperidin-2-yl)methyl)t-butyl carbamate]"
267,–,447,"Cc1ccc(Nc2cc(OC(F)(F)F)ccn2)nc1C(=O)N1CCCC(F)(F)CC1 [Compound 38, (4,4-Difluoroazepin-1-yl)(3-methyl-6-((4-(trifluoromethoxy)pyridin-2-yl)amino)pyridin-2-yl)methanone]"
107,–,3210,"CCNC(=O)C1CCC(F)(F)CN1C(=O)c1nc(Nc2cc(OC(F)(F)F)ccn2)ccc1C (centres unmarked) [Compound 49, N-ethyl-5,5-difluoro-1-(3-methyl-6-((4-(trifluoromethoxy)pyridin-2-yl)amino)pyridine-2-carbonyl)piperidine-2-carboxamide]"
167,–,> 10000,"CC(=O)N[C@H]1CN(C(=O)c2nc(Nc3cc(OC(F)(F)F)ccn3)ccc2C)CC(F)(F)C1 [Compound 43, (R)—N-(5,5-difluoro-1-(3-methyl-6-((4-(trifluoromethoxy)pyridin-2-yl)amino)pyridine-2-carbonyl)piperidin-3-yl)acetamide]"
19.9,–,884,"CC(=O)NC[C@H]1CCCCN1C(=O)c1nc(Nc2cc(OC(F)(F)F)ccn2)ccc1C [Compound 45, (R)—N-((1-(3-methyl-6-((4-(trifluoromethoxy)pyridin-2-yl)amino)pyridine-2-carbonyl)piperidin-2-yl)methyl)acetamide]"
14.6,–,658,"CC(=O)N(C)C[C@H]1CCC(F)(F)CN1C(=O)c1nc(Nc2cc(OC(F)(F)F)ccn2)ccc1C [Compound 52, (R)—N-((5,5-difluoro-1-(3-methyl-6-((4-(trifluoromethoxy)pyridin-2-yl)amino)pyridine-2-carbonyl)piperidin-2-yl)methyl)-N-methylacetamide]"
23,–,679,"CC(=O)NCC1CCC(F)(F)CN1C(=O)c1nc(Nc2cc(OC(F)(F)F)ccn2)ccc1C (centres unmarked) [Compound 44, N-((5,5-difluoro-1-(3-methyl-6-((4-(trifluoromethoxy)pyridin-2-yl)amino)pyridine-2-carbonyl)piperidin-2-yl)methyl)acetamide]"
34.8,–,361,"CC(=O)N[C@@H]1CN(C(=O)c2nc(Nc3cc(OC(F)(F)F)ccn3)ccc2C)CC(F)(F)C1 [Compound 42, (S)—N-(5,5-difluoro-1-(3-methyl-6-((4-(trifluoromethoxy)pyridin-2-yl)amino)pyridine-2-carbonyl)piperidin-3-yl)acetamide]"
